# Test results published in ChEMBL document CHEMBL1149039, “A new scalarane sesterterpenoid from the marine sponge Cacospongia mollior” (J Nat Prod, 1994).
# Experiment: Toxicity in Artemia salina
# Format: organism-based
# Settings: in vivo, read-out: LD50 (the source's name)
row,Compound,LC50 [µg/mL]
1,CC1(C)CCC[C@]2(C)[C@H]3CC[C@@]4(C)[C@@H](CC=C(C=O)[C@@H]4C=O)[C@]3(C)CC[C@@H]12 [12-DEACETOXYSCALARADIAL],0.77
2,CC(=O)O[C@H]1C[C@@H]2[C@@]3(C)CCCC(C)(C)[C@@H]3CC[C@@]2(C)[C@@H]2CC=C(C=O)[C@H](C=O)[C@@]12C [SCALARADIAL],0.18
